Assay results reported in ChEMBL document CHEMBL1201862, “PubChem BioAssay data set” (2004).
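A five-concentration, 48-hour dose response in 96-well plates underlies each endpoint, interpolated linearly between surrounding concentrations. GI50 marks 50% less growth.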 Activity calls are given as the source filed them. No stated cut-off is given here; in the data, active = GI50 up to about 1.1 µM and inactive = higher.

Columns and labels:
Assay in all cases: DTP human tumour cell line panel, 48 h
[1] = tested on: 786-0
[2] = tested on: MDA-MB-435
[3] = tested on: SK-MEL-5
[4] = tested on: HT-29
[5] = tested on: NCI-H522
[6] = tested on: CAKI-1
[7] = tested on: SNB-19
[8] = tested on: HCC 2998
[9] = tested on: DMS-114
[10] = tested on: TK-10
[11] = tested on: HOP-92
[12] = tested on: NCI/ADR-RES
[13] = tested on: SK-OV-3
[14] = tested on: K562
[15] = tested on: Hs-578T
[16] = tested on: RPMI-8226
[17] = tested on: SF-268
[18] = tested on: MDA-N
[19] = tested on: U-251
[20] = tested on: BT-549

Row | SMILES | GI50 [1] | GI50 [2] | GI50 [3] | GI50 [4] | GI50 [5] | GI50 [6] | GI50 [7] | GI50 [8] | GI50 [9] | GI50 [10] | GI50 [11] | GI50 [12] | GI50 [13] | GI50 [14] | GI50 [15] | GI50 [16] | GI50 [17] | GI50 [18] | GI50 [19] | GI50 [20]
1 | O=C1C=C(Nc2cccnc2)c2ccccc2C1=O | 8.95 µM (inactive) | 0.348 µM (active) | 1.26 µM (inactive) | 17 µM (inactive) | 4.7 µM (inactive) | 4.58 µM (inactive) | 7.1 µM (inactive) | 11.2 µM (inactive) | 2.02 µM (inactive) | 19.1 µM (inactive) | 16.1 µM (inactive) | 4.25 µM (inactive) | 8.71 µM (inactive) | 1.76 µM (inactive) | 2.4 µM (inactive) | 9.04 µM (inactive) | 7.91 µM (inactive) | 0.372 µM (active) | 9.25 µM (inactive) | 1.44 µM (inactive)
2 | COc1cc2cccc(/N=C\c3ccccc3Cl)c2cc1OC | > 100 µM (inactive) |  | > 100 µM (inactive) | 79.6 µM (inactive) | > 100 µM (inactive) | > 100 µM (inactive) | > 100 µM (inactive) | > 100 µM (inactive) | 35.2 µM (inactive) | > 100 µM (inactive) | > 100 µM (inactive) |  | > 100 µM (inactive) | 4.8 µM (inactive) |  | 78.2 µM (inactive) | > 100 µM (inactive) |  | 95.9 µM (inactive) | 
